What was measured:
[1] = system: isolated atria; assay: Direct effect (intrinsic sympathomimetic activity) on reserpine pretreated isolated atria; parameters: species or system Wistar rat; details: 3×10−4M
Procedure: Wistar rats of weight between 200˜300 gm were used. 18˜24 hours before the experiment, 5 mg/kg of reserpine was injected via abdominal cavity to remove all endogenous catecholamines. Prior experiment, Wistar rats were sacrificed, the heart was immediately removed and placed in Kreb's solution aerated with air mixture and maintained at room temperature. The right and left atria were carefully separated.

[2] = Heart rate and blood pressure in living rat; assay type: in vivo, Wistar rats; details: 1 mg/kg via femoral vein, anaesthetized rat
From the text: Male Wistar rats, weighing 200˜300 g were abdominal anaesthetized with pentobarbital sodium. Tracheal was cannulated to maintain normal respiration. Polyethylene tube was inserted into the left femoral vein to facilitate drug administration. A 3-way stopcock was used, with one end connected to a syringe for drug injection, while the other end was connected to the syringe filled with physiological saline. The latter was used to prevent residual drugs in the polyethylene tube after injection, which would affect experimental accuracy.
The right femoral artery was also inserted with polyethylene, and a 3-way stopcock was used too, where one end was connected to heparin solution to prevent embolism. The other end was connected to a Disposable Diaphragm Dome, TA1019, and linked to a transducer. Through an amplifier, a recorder recorded the overall and average arterial pressure; heart rate to evaluate the effect of drug on blood pressure and heart rate.

[3] = target: T1, β-adrenoreceptor (β1) (Rattus norvegicus, UniProt P18090); assay: Isolated right atrium, L-isoproterenol-induced heart rate increase (pA2); parameters: species or system Wistar rat; details: for β1/β2: from pA2 difference right atrium vs tracheal; for β1 Right Atrium (Slope): slope of Schild regression; for β1 Value of pA2 Right Atrium: vs L-isoproterenol, Schild plot
T1 construct: The right and left atria were then separated; from tissue; host or cells: isolated rat right atrium (spontaneously beating) and left atrium (electrically paced)
T1 sequence (P18090 whole entry): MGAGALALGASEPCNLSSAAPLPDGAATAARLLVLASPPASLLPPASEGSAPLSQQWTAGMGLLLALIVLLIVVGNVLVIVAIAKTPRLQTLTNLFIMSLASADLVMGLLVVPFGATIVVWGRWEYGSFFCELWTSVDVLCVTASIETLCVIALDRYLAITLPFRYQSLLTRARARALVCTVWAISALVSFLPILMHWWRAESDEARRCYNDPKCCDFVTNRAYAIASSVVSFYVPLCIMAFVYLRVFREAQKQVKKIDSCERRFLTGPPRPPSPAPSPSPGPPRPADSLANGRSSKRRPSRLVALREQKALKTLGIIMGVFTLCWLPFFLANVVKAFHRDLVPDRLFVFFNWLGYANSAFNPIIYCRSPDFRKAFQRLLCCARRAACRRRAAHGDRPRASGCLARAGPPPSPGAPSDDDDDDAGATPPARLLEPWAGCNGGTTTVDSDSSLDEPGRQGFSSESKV
Procedure: The right and left atria were then separated. The spontaneously-beating right atria was clipped on both end by heart shaped clips, where one end was fixed at the bottom of 10 ml of tissue bath made of physiological saline solution, and temperature maintained at 37° C. The other end of the atria was connected to a force transducer, and isometric contractions and beating rate of the right atria were recorded by COULBOURN AT-High-Speed VideoFigure. After the samples were given 250 mg of contractions and reach equilibrium the following experiments were carried out: • (a) β-adrenoceptor blocking action
Cumulative administration interval was when the previous concentration reached its greatest effect, the next concentration would be immediately given.
The equation is as follows: pA2=−Log KB Log(DRADJ−1)=nlog[B]−LogKB [formula]
[B] Test compound concentration in moles • KB: equilibrium dissociation constant • n: value of slope DR: test EC50 divided by control EC50 • CF: EC50 of second or third control groups divided by EC50 of first control group (c) Effect of Compound on the Increase of Spontaneous Beating in Right Atrium Caused by CaCl2

[4] = target: T1, β-adrenoreceptor (β1); assay: Isolated left atrium, L-isoproterenol-induced contractility increase (pA2); parameters: species or system Wistar rat; details: for β1 Left Atrium (Slope): slope of Schild regression; for β1 Value of pA2 Left Atrium: vs L-isoproterenol, electrically stimulated
Procedure: The inspontaneously-beating left atrial tissue was obtained from rat's isolated right atrial tissue experiments. […] The contraction rate was 1 Hz and the resting tension 0.5 gm. After 60 minutes of equilibration, the following experiments were performed:
(a) Completion of cumulative concentration-response curve: similar to experimental method on isolated right atrium;
(b) Calculation of pA2 value: similar to calculation method on isolated right atrium.

[5] = target: T2, β2 (Cavia porcellus, UniProt Q8K4Z4); assay: Guinea pig's isolated tracheal, L-isoproterenol relaxation of carbachol contraction (pA2); details: for β2 Tracheal (slope): slope of Schild regression; for β2 Value of pA2 Tracheal: vs L-isoproterenol, carbachol 10^−6 M contraction
T2 construct: a portion of tracheal approximately 4 cm long was removed; from tissue; host or cells: isolated trachea of reserpine-pretreated guinea pigs
T2 sequence (Q8K4Z4 whole entry): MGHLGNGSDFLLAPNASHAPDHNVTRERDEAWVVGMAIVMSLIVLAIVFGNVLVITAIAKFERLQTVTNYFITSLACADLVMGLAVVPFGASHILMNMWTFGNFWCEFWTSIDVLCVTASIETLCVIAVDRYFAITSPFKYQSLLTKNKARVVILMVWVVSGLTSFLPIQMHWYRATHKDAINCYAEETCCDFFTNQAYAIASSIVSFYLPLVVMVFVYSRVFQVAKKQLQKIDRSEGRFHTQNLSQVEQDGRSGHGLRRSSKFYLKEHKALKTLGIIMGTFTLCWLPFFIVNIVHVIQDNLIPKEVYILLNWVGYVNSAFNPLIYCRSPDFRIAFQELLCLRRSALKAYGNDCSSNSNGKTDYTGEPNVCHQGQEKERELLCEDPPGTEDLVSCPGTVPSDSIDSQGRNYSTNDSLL
Procedure: Guinea pigs of weight between 300˜500 gm were used. […] After the guinea pigs were sacrificed, a slit was made along the neck, and a portion of tracheal approximately 4 cm long was removed. […] The two ends of the tracheal were clamped with frog-heart shaped clamps, one end was fixed at the bottom of tissue bath filled with 20 ml of Kreb's solution, maintained at 37° C., while the other end was connected to a force transducer. Through a COULBOURN AT-High-Speed Videograph, long isometric contractions were recorded. After the sample was given 1.5 gm of tension and equilibrated, the following experiments were performed:
Then the tracheal was repeatedly washed with Kreb's solution for 20 minutes and 10−6 M of carbochol was added to cause contraction in the guinea pig's tracheal. […] This is the test group.
(b) Calculation of pA2: similar to the calculation method for isolated right atrium experiment.

[6] = system: thoracic aorta; assay: Isolated thoracic aorta contraction caused by 75 mM KCl; parameters: species or system Wistar rat; details: 10^−8M; 75 mM KCl contraction
Procedure: After sacrificing Wistar rat of weight between 300-500 gm, the thoracic aorta was immediately removed and placed in cold Kreb's solution. The fatty connecting tissue surrounding the vessel wall was removed and the thoracic aorta was cut into rings of length 5 mm. The two ends of each ring was pieced and fixed with “Z” shaped platinum wires. […] The sample was given 1 gm of tension and equilibrated for 60 minutes before the following experiments were carried out:
After thoracic aorta had reached equilibrium in the tissue trough, the normal Kreb's solution in the trough was replaced with 75 mM KCl solution to induce vasoconstriction. When the results had been recorded for at least 35 minutes, the aorta was repeatedly rinsed with normal Kreb's solution. After the aorta had re-equilibrated and at least rested for 60 minutes, different concentrations (10^−8, 10^−7, 10^−6, and 10^−5M) of compound 1 were separately added. 30 minutes later, 75 mM KCl was added again to induce vasoconstriction. This method was used to compare the differences in contraction induced by 75 mM KCl on thoracic aorta pre-treated and non-treated with compound 1.
0.1 μM of BayK8644 was first added into the tissue trough. 10 minutes later, 75 mM of concentrated Potassium solution was added to induce thoracic aorta contraction. When vasoconstriction had reached stability, different concentrations of (10^−8, 10^−7, 10^−6, and 10^−5M) compound 1 were separately added. The effects of aorta contraction induced by concentrated Potassium solution were observed.

[7] = system: Calcium; assay: Calcium antagonism (pKCa^−1, Table 2)

Compound	atrial blocking effect [1]	Lowering of Blood Pressure [2]	Reduction of Heart Rate [2]	Ratio of β1 and Calcium Antagonism [3]	β1/β2 [3]	β1 Right Atrium (Slope) [3]	β1 Value of pA2 Right Atrium [3]	β1 Left Atrium (Slope) [4]	β1 Value of pA2 Left Atrium [4]	β2 Tracheal (slope) [5]	β2 Value of pA2 Tracheal [5]	Aorta Relaxation [6]	Calcium Antagonism PKCa^−1 [7]
CC(C)NCC(O)COc1ccc(CC(N)=O)cc1 (stereo not shown) [atenolol]	almost does not have atrial blocking effect	–	–	–	–	–	–	–	–	–	–	–	–
CCOC(=O)C1=C(C)NC(C)=C(C(=O)OCC)C1c1cc(Cl)ccc1OCC(O)CNC(C)(C)C (stereo not shown) [Compound 4]	–	76 ± 6 mmHg	33 ± 3 beats/min	0.08	1.31	(0.83 ± 0.12)	7.38 ± 0.12	(0.92 ± 0.12)	6.90 ± 0.35	(0.87 ± 0.18)	7.27 ± 0.32	35 ± 5%	7.94 ± 0.56
CCOC(=O)C1=C(C)NC(C)=C(C(=O)OCC)C1c1cc(Cl)ccc1OCC(O)CNCCOc1ccccc1OC (stereo not shown) [Compound 6]	–	80 ± 3 mmHg	35 ± 5 beats/min	0.11	1.29	(0.88 ± 0.12)	7.41 ± 0.34	(0.91 ± 0.09)	7.01 ± 0.28	(0.90 ± 0.19)	7.31 ± 0.19	45 ± 4%	8.01 ± 0.45
CCOC(=O)C1=C(C)NC(C)=C(C(=O)OCC)C1c1ccc(OCC(O)CNCCOc2ccccc2OC)c(Cl)c1 (stereo not shown) [Compound 7, 4-{{N-{4-[2-hydroxy-3-(2-methoxy-1-oxyethyl-aminobenzene)propoxy]-3-choloro}phenyl} }-2,6-dimethyl-3,5-dicarbo-ethoxy-1,4-dihydropyridine]	–	82 ± 6 mmHg	40 ± 2 beats/min	0.07	1.34	(0.91 ± 0.08)	7.77 ± 0.34	(0.88 ± 0.27)	6.97 ± 0.29	(0.89 ± 0.21)	7.28 ± 0.21	45 ± 5%	8.06 ± 0.27
CCOC(=O)C1=C(C)NC(C)=C(C(=O)OCC)C1c1cc([N+](=O)[O-])ccc1OCC(O)CNCCOc1ccccc1OC (stereo not shown) [Compound 9]	–	85 ± 6 mmHg	40 ± 5 beats/min	0.07	1.30	(0.88 ± 0.09)	7.78 ± 0.12	(0.91 ± 0.18)	7.12 ± 0.09	(0.88 ± 0.23)	7.33 ± 0.24	47 ± 2%	8.12 ± 0.32
